Experimental data from PubChem BioAssay AID2060326 (Molecular Pharmacology Branch, DTP, NCI, 2025).
Where “and” joins values, the source holds several entries; their conditions need not be identical. Equal values may be shown once. Each block holds one compound with its values, some of them ahead of it.

Test system: MDA-MB-468 multi-cell spheroids, viability
Test: Anticancer human tumor MDA-MB-468 cell line growth inhibition [IpAb];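 note: spheroids exposed to agents for seven days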;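 for viability, T/C: 100% = DMSO vehicle control viability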
Conditions: for viability, T/C: stronger effect = lower value
Method in brief: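 Multi-cell spheroids of 60% tumour cells, 25% HUVEC and 15% MSC in ultra-low-attachment U-bottom wells, treated with agents combined with ipatasertib or abemaciclib. Half-log ranges top out near clinical Cmax, or 10 microM when Cmax is unknown.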

[1] = curve of first compound, second compound 0.01 µM
[2] = curve of first compound, second compound 0.0316 µM
[3] = curve of first compound, second compound 0.1 µM
[4] = curve of first compound, second compound 0.316 µM
[5] = curve of first compound, second compound 1 µM
[6] = second compound 0.01 µM, first compound 0.0316 µM
[7] = second compound 0.01 µM, first compound 0.1 µM
[8] = second compound 0.01 µM, first compound 0.316 µM
[9] = second compound 0.01 µM, first compound 1 µM
[10] = second compound 0.01 µM, first compound 3.16 µM
[11] = second compound 0.01 µM, first compound 10 µM
[12] = second compound 0.0316 µM, first compound 0.0316 µM
[13] = second compound 0.0316 µM, first compound 0.1 µM
[14] = second compound 0.0316 µM, first compound 0.316 µM
[15] = second compound 0.0316 µM, first compound 1 µM
[16] = second compound 0.0316 µM, first compound 3.16 µM
[17] = second compound 0.0316 µM, first compound 10 µM
[18] = second compound 0.1 µM, first compound 0.0316 µM
[19] = second compound 0.1 µM, first compound 0.1 µM
[20] = second compound 0.1 µM, first compound 0.316 µM
[21] = second compound 0.1 µM, first compound 1 µM
[22] = second compound 0.1 µM, first compound 3.16 µM
[23] = second compound 0.1 µM, first compound 10 µM
[24] = second compound 0.316 µM, first compound 0.0316 µM
[25] = second compound 0.316 µM, first compound 0.1 µM
[26] = second compound 0.316 µM, first compound 0.316 µM
[27] = second compound 0.316 µM, first compound 1 µM
[28] = second compound 0.316 µM, first compound 3.16 µM
[29] = second compound 0.316 µM, first compound 10 µM
[30] = second compound 1 µM, first compound 0.0316 µM
[31] = second compound 1 µM, first compound 0.1 µM
[32] = second compound 1 µM, first compound 0.316 µM
[33] = second compound 1 µM, first compound 1 µM
[34] = second compound 1 µM, first compound 3.16 µM
[35] = second compound 1 µM, first compound 10 µM

- IC50 (curve of compound): > 10000 nM
Structure (SMILES): CCCS(=O)(=O)Nc1ccc(F)c(C(=O)c2c[nH]c3ncc(-c4ccc(Cl)cc4)cc23)c1F
- viability, T/C (compound 0.0316 µM): 99.5% and 107%
- viability, T/C (compound 0.1 µM): 99% and 91.6%
- viability, T/C (compound 0.316 µM): 95% and 103%
- viability, T/C (compound 1 µM): 100% and 109%
- viability, T/C (compound 3.16 µM): 97.5% and 106%
- viability, T/C (compound 10 µM): 66.3% and 75.8%

Structure (SMILES): Cn1ncc(Cl)c1-c1cc(C(=O)NC(CN)Cc2cccc(F)c2)sc1Cl (centres undefined) + CCN1CCN(Cc2ccc(Nc3ncc(F)c(-c4cc(F)c5nc(C)n(C(C)C)c5c4)n3)nc2)CC1
- IC50 [1]: 461 nM
- IC50 [2]: 319 nM
- IC50 [3]: 318 nM
- IC50 [4]: 396 nM
- IC50 [5]: 223 nM
- viability, T/C [6]: 88.4%
- viability, T/C [7]: 74.1%
- viability, T/C [8]: 57.7%
- viability, T/C [9]: 36.6%
- viability, T/C [10]: 11.8%
- viability, T/C [11]: 0.13%
- viability, T/C [12]: 97.3%
- viability, T/C [13]: 58.5%
- viability, T/C [14]: 48%
- viability, T/C [15]: 34.1%
- viability, T/C [16]: 15.1%
- viability, T/C [17]: 0.12%
- viability, T/C [18]: 109%
- viability, T/C [19]: 72%
- viability, T/C [20]: 51.5%
- viability, T/C [21]: 31.8%
- viability, T/C [22]: 11.2%
- viability, T/C [23]: 0.11%
- viability, T/C [24]: 81.2%
- viability, T/C [25]: 72.6%
- viability, T/C [26]: 53.4%
- viability, T/C [27]: 32.6%
- viability, T/C [28]: 5.2%
- viability, T/C [29]: 0.11%
- viability, T/C [30]: 81.5%
- viability, T/C [31]: 52.9%
- viability, T/C [32]: 53.4%
- viability, T/C [33]: 26%
- viability, T/C [34]: 2.78%
- viability, T/C [35]: 0.19%

- IC50 (curve of compound): 1560 nM and 1200 nM
Structure (SMILES): Cn1cnc2c(F)c(Nc3ccc(Br)cc3Cl)c(C(=O)NOCCO)cc21
- viability, T/C (compound 0.00949 µM): 87.3% and 84.9%
- viability, T/C (compound 0.03 µM): 92.3% and 85%
- viability, T/C (compound 0.0949 µM): 65.1% and 77.8%
- viability, T/C (compound 0.3 µM): 72% and 68.5%
- viability, T/C (compound 0.949 µM): 59.6% and 59.1%
- viability, T/C (compound 3 µM): 39.2% and 26.2%

Structure (SMILES): CC(C)(C)c1cnc(CSc2cnc(NC(=O)C3CCNCC3)s2)o1 + CC(C)NCC(C(=O)N1CCN(c2ncnc3c2C(C)CC3O)CC1)c1ccc(Cl)cc1
- IC50 [3]: 69.1 nM
- IC50 [4]: 45.3 nM
- IC50 [5]: 36.9 nM
- IC50 (curve of first compound, second compound 3.16 µM): < 9.49 nM
- IC50 (curve of first compound, second compound 10 µM): < 9.49 nM
- viability, T/C (second compound 0.1 µM, first compound 0.00949 µM): 110%
- viability, T/C (second compound 0.1 µM, first compound 0.03 µM): 91.4%
- viability, T/C (second compound 0.1 µM, first compound 0.0949 µM): 35%
- viability, T/C (second compound 0.1 µM, first compound 0.3 µM): 0.3%
- viability, T/C (second compound 0.1 µM, first compound 0.949 µM): 0.19%
- viability, T/C (second compound 0.1 µM, first compound 3 µM): 0.32%
- viability, T/C (second compound 0.316 µM, first compound 0.00949 µM): 73.9%
- viability, T/C (second compound 0.316 µM, first compound 0.03 µM): 67.4%
- viability, T/C (second compound 0.316 µM, first compound 0.0949 µM): 18.8%
- viability, T/C (second compound 0.316 µM, first compound 0.3 µM): 0.27%
- viability, T/C (second compound 0.316 µM, first compound 0.949 µM): 0.15%
- viability, T/C (second compound 0.316 µM, first compound 3 µM): 0.27%
- viability, T/C (second compound 1 µM, first compound 0.00949 µM): 62.2%
- viability, T/C (second compound 1 µM, first compound 0.03 µM): 58.7%
- viability, T/C (second compound 1 µM, first compound 0.0949 µM): 10%
- viability, T/C (second compound 1 µM, first compound 0.3 µM): 0.2%
- viability, T/C (second compound 1 µM, first compound 0.949 µM): 0.14%
- viability, T/C (second compound 1 µM, first compound 3 µM): 0.24%
- viability, T/C (second compound 3.16 µM, first compound 0.00949 µM): 41.5%
- viability, T/C (second compound 3.16 µM, first compound 0.03 µM): 35.4%
- viability, T/C (second compound 3.16 µM, first compound 0.0949 µM): 11.5%
- viability, T/C (second compound 3.16 µM, first compound 0.3 µM): 0.23%
- viability, T/C (second compound 3.16 µM, first compound 0.949 µM): 0.13%
- viability, T/C (second compound 3.16 µM, first compound 3 µM): 0.31%
- viability, T/C (second compound 10 µM, first compound 0.00949 µM): 21.3%
- viability, T/C (second compound 10 µM, first compound 0.03 µM): 18.1%
- viability, T/C (second compound 10 µM, first compound 0.0949 µM): 1.19%
- viability, T/C (second compound 10 µM, first compound 0.3 µM): 0.32%
- viability, T/C (second compound 10 µM, first compound 0.949 µM): 0.24%
- viability, T/C (second compound 10 µM, first compound 3 µM): 0.65%

Structure (SMILES): Cn1ncnc1[C@H]1c2n[nH]c(=O)c3cc(F)cc(c23)N[C@@H]1c1ccc(F)cc1 + CCN1CCN(Cc2ccc(Nc3ncc(F)c(-c4cc(F)c5nc(C)n(C(C)C)c5c4)n3)nc2)CC1
- IC50 [1]: > 100 nM
- IC50 [2]: > 100 nM
- IC50 [3]: > 100 nM
- IC50 [4]: > 100 nM
- IC50 [5]: > 100 nM
- viability, T/C (second compound 0.01 µM, first compound 0.000316 µM): 89%
- viability, T/C (second compound 0.01 µM, first compound 0.001 µM): 91.1%
- viability, T/C (second compound 0.01 µM, first compound 0.00316 µM): 89.2%
- viability, T/C (second compound 0.01 µM, first compound 0.01 µM): 82.8%
- viability, T/C [6]: 89.6%
- viability, T/C [7]: 63.1%
- viability, T/C (second compound 0.0316 µM, first compound 0.000316 µM): 89.1%
- viability, T/C (second compound 0.0316 µM, first compound 0.001 µM): 82.4%
- viability, T/C (second compound 0.0316 µM, first compound 0.00316 µM): 92%
- viability, T/C (second compound 0.0316 µM, first compound 0.01 µM): 73.2%
- viability, T/C [12]: 91.6%
- viability, T/C [13]: 54%
- viability, T/C (second compound 0.1 µM, first compound 0.000316 µM): 92%
- viability, T/C (second compound 0.1 µM, first compound 0.001 µM): 103%
- viability, T/C (second compound 0.1 µM, first compound 0.00316 µM): 94.9%
- viability, T/C (second compound 0.1 µM, first compound 0.01 µM): 97.5%
- viability, T/C [18]: 78.5%
- viability, T/C [19]: 63.7%
- viability, T/C (second compound 0.316 µM, first compound 0.000316 µM): 92.8%
- viability, T/C (second compound 0.316 µM, first compound 0.001 µM): 85%
- viability, T/C (second compound 0.316 µM, first compound 0.00316 µM): 86.6%
- viability, T/C (second compound 0.316 µM, first compound 0.01 µM): 90.2%
- viability, T/C [24]: 78.2%
- viability, T/C [25]: 70.1%
- viability, T/C (second compound 1 µM, first compound 0.000316 µM): 86.7%
- viability, T/C (second compound 1 µM, first compound 0.001 µM): 83.5%
- viability, T/C (second compound 1 µM, first compound 0.00316 µM): 82.3%
- viability, T/C (second compound 1 µM, first compound 0.01 µM): 68.2%
- viability, T/C [30]: 66.6%
- viability, T/C [31]: 68.9%

Structure (SMILES): Cc1nc(NC(=O)N2CCCC2C(N)=O)sc1-c1ccnc(C(C)(C)C(F)(F)F)c1 (centres undefined) + CCN1CCN(Cc2ccc(Nc3ncc(F)c(-c4cc(F)c5nc(C)n(C(C)C)c5c4)n3)nc2)CC1
- IC50 [1]: 7820 nM
- IC50 [2]: 5280 nM
- IC50 [3]: 4970 nM
- IC50 [4]: 3890 nM
- IC50 [5]: 1290 nM
- viability, T/C [6]: 108%
- viability, T/C [7]: 90.6%
- viability, T/C [8]: 102%
- viability, T/C [9]: 79.2%
- viability, T/C [10]: 102%
- viability, T/C [11]: 37.4%
- viability, T/C [12]: 77.8%
- viability, T/C [13]: 83.4%
- viability, T/C [14]: 68%
- viability, T/C [15]: 86%
- viability, T/C [16]: 69%
- viability, T/C [17]: 24.4%
- viability, T/C [18]: 99.8%
- viability, T/C [19]: 91.9%
- viability, T/C [20]: 98.9%
- viability, T/C [21]: 86%
- viability, T/C [22]: 67.3%
- viability, T/C [23]: 23.7%
- viability, T/C [24]: 91%
- viability, T/C [25]: 89.7%
- viability, T/C [26]: 77.7%
- viability, T/C [27]: 79.3%
- viability, T/C [28]: 57.2%
- viability, T/C [29]: 16.5%
- viability, T/C [30]: 57.9%
- viability, T/C [31]: 68.1%
- viability, T/C [32]: 62.9%
- viability, T/C [33]: 55.1%
- viability, T/C [34]: 30.6%
- viability, T/C [35]: 6.3%
